Test results reported in paper PMC10068823 (European Journal of Medicinal Chemistry, 2023).

Experiments:
[1] = test system: MERS-CoV
[2] = test system: HCoV 229E; details: BEAS2B cell
[3] = test system: HCoV 229E; assay: organism not typed; details: BEAS-2B, read-out: EC50 HCoV229E
[4] = test system: SARS-CoV-2
[5] = molecular target: T1, SARS-CoV-2 3CL^pro (Severe acute respiratory syndrome coronavirus 2, UniProt P0DTD1); assay type: biochemical
[6] = molecular target: T1, SARS-CoV-2 3CL^pro; assay type: biochemical; remark: listed apart in the source
[7] = test system: Calu-3 cells

| Structure (SMILES) | SI (CC50/EC50) MERS [1] | SI (CC50/EC50) HCoV229E [2] | EC50 [3] | improvement in antiviral potency when co-dosed with CP-100356 [4] | SARS-CoV-2 3CL^pro enzyme inhibition at fixed concentration [5] | further results |
| --- | --- | --- | --- | --- | --- | --- |
| CO[C@H]1C[C@@H](C(=O)N[C@H](C=O)C[C@@H]2CCNC2=O)N(C(=O)[C@@H](NC(=O)OC(C)(C)C)C(C)C)C1 [Compound 8, tert-Butyl ((S)-1-((2S,4S)-4-methoxy-2-(((S)-1-oxo-3-((S)-2-oxopyrrolidin-3-yl)propan-2-yl)carbamoyl)pyrrolidin-1-yl)-3-methyl-1-oxobutan-2-yl)carbamate] | 0.58 ± 0.34 (>172) | < 10 | > 3.6 µM | – | – | increase in potency on MERS respect to SARS-CoV-2 in the CPE cellular assay [1]: 15 fold |
| CC(C)[C@H](NC(=O)OC(C)(C)C)C(=O)N1CCCC[C@H]1C(=O)N[C@H](C=O)C[C@@H]1CCNC1=O [Compound 13, tert-Butyl ((S)-3-methyl-1-oxo-1-((S)-2-(((S)-1-oxo-3-((S)-2-oxopyrrolidin-3-yl)propan-2-yl)carbamoyl)piperidin-1-yl)butan-2-yl)carbamate] | – | – | – | more than 3 fold | – | – |
| CC(C)[C@H](NC(=O)OC(C)(C)C)C(=O)N1C[C@H](OC(C)(C)C)C[C@H]1C(=O)N[C@H](C=O)C[C@@H]1CCNC1=O [Compound 11, tert-Butyl ((S)-1-((2S,4R)-4-(tert-butoxy)-2-(((S)-1-oxo-3-((S)-2-oxopyrrolidin-3-yl)propan-2-yl)carbamoyl)pyrrolidin-1-yl)-3-methyl-1-oxobutan-2-yl)carbamate] | 33.56 ± 6.8 (>3) | < 10 | > 48.2 µM | more than 3 fold | – | – |
| CC(C)[C@H](NC(=O)OC(C)(C)C)C(=O)N1CCC[C@H]1C(=O)N[C@H](C=O)C[C@@H]1CCNC1=O [Compound 6, tert-Butyl ((S)-3-methyl-1-oxo-1-((S)-2-(((S)-1-oxo-3-((S)-2-oxopyrrolidin-3-yl)propan-2-yl)carbamoyl)pyrrolidin-1-yl)butan-2-yl)carbamate] | 4.56 ± 1.39 (>22) | < 10 | > 17.9 µM | – | – | – |
| COC(=O)[C@H](C[C@@H]1CCNC1=O)NC(=O)[C@@H]1CCCN1C(=O)[C@@H](NC(=O)OC(C)(C)C)C(C)C [Compound 25g, Methyl (S)-2-((S)-1-((tert-butoxycarbonyl)-L-valyl)pyrrolidine-2-carboxamido)-3-((S)-2-oxopyrrolidin-3-yl)propanoate] | – | – | – | – | inactive | – |
| C[C@H](OC(C)(C)C)[C@H](NC(=O)OC(C)(C)C)C(=O)N1CCC[C@H]1C(=O)N[C@H](C=O)C[C@@H]1CCNC1=O [Compound 14, tert-Butyl ((2S,3S)-3-(tert-butoxy)-1-oxo-1-((S)-2-(((S)-1-oxo-3-((S)-2-oxopyrrolidin-3-yl)propan-2-yl)carbamoyl)pyrrolidin-1-yl)butan-2-yl)carbamate] | – | – | – | more than 3 fold | – | – |
| CC(C)[C@H](NC(=O)OC(C)(C)C)C(=O)N1C[C@@H]2CCC[C@@H]2[C@H]1C(=O)N[C@H](C=O)C[C@@H]1CCNC1=O [Compound 12, tert-Butyl ((S)-3-methyl-1-oxo-1-((1S,3aR,6aS)-1-(((S)-1-oxo-3-((S)-2-oxopyrrolidin-3-yl)propan-2-yl)carbamoyl)hexahydrocyclopenta[c]pyrrol-2(1H)-yl)butan-2-yl)carbamate] | – | – | – | – | – | mechanism of action from enzymatic progression curve [6]: slow covalent binding inhibitor; lower activity against MERS compared to SARS-CoV-2 [1]: 20 fold; cytotoxicity in Calu-3 cells [7]: without sign of cytotoxicity |
| CC(C)[C@H](NC(=O)OC(C)(C)C)C(=O)N1CCC[C@H]1C(=O)N[C@H](CO)C[C@@H]1CCNC1=O [Compound 27g, tert-Butyl ((S)-1-((S)-2-(((S)-1-hydroxy-3-((S)-2-oxopyrrolidin-3-yl)propan-2-yl)carbamoyl)pyrrolidin-1-yl)-3-methyl-1-oxobutan-2-yl)carbamate] | – | – | – | – | inactive | – |
| CC(C)[C@H](NC(=O)OC(C)(C)C)C(=O)N1CCC[C@H]1C(=O)N[C@@H](C[C@@H]1CCNC1=O)C(=O)O [Compound 26, (S)-2-((S)-1-((tert-butoxycarbonyl)-L-valyl)pyrrolidine-2-carboxamido)-3-((S)-2-oxopyrrolidin-3-yl)propanoic acid] | – | – | – | – | inactive | – |
| CC(C)C[C@H](NC(=O)[C@@H](NC(=O)OC(C)(C)C)C(C)C)C(=O)N[C@H](C=O)C[C@@H]1CCNC1=O [Compound 5, tert-Butyl ((S)-3-methyl-1-(((S)-4-methyl-1-oxo-1-(((S)-1-oxo-3-((S)-2-oxopyrrolidin-3-yl)propan-2-yl)amino)pentan-2-yl)amino)-1-oxobutan-2-yl)carbamate] | 1.58 ± 0.91 (>63) | > 30.1 | – | more than 3 fold | – | – |
